# Where two headings read alike, the source gives them in different places.
# Molecular target: T1, recombinant human NaV1.8 stably transfected HEK cells (Homo sapiens, UniProt Q9Y5Y9)
# T1 construct: expressed in transfected cells; host or cells: HEK cells, stably transfected
# Assay: Compound profiling on NaV1.8, human NaV1.8 cell line, SyncroPatch384PE automated patch clamp assay (Example 115, third set of compounds, Table 27)
# Type: cell-based
# Conditions: human NaV1.8 HEK cells, Table 27 (third set of compounds)
# Experimental: Compound Profiling on NaV1.8 Human NaV1.8 Cell Line SyncroPatch384PE Assay
# Compounds were tested on recombinant human NaV1.8 stably transfected HEK cells using the SyncroPatch384PE system, an automated patch clamp device. Cells were cultured at 37° C./5% CO2 in DMEM medium supplemented with GlutaMAX I, NEAA 1%, FBS 10% and seeded in T175 flasks. Cells were cultured at 30° C. one day prior to recording sodium currents. On the day of the recordings, cells were detached with 0.05% Trypsin-EDTA, resuspended in serum free DMEM medium and placed into the SyncroPatch384PE 6° C. pre-cooled cell hotel and shaken at 200 rpm. Intracellular solution (IC) contained, in mM: 10, CsCl; 110, CsF; 20, EGTA; 10, HEPES. Extracellular solution (EC) contained, in mM: 140, NaCl; 4, KCl; 5, Glucose; 10, HEPES; 2, CaCl2; 1, MgCl2. Washing solution contained, in mM: 40, NMDG; 100, NaCl; 4, KCl; 10, Glucose; 10, HEPES; 5, CaCl2; 1, MgCl2.
# Compounds were tested in quadruplicates in 0.1% DMSO and 0.030% Pluronic Acid. Compounds were diluted 1:3.33 in EC solution to create a 10-point concentration response curve, spanning a final concentration range from 10-0.0002 μM in the assay plate. Compounds with low nM potency were retested using a lower concentration range (1-0.00002 μM). Each plate contained tetracaine and another tool compound as positive controls. Up to 7 compounds were tested on one plate. 150 μM tetracaine and 0.1% DMSO were used as high and low controls, respectively.
# Whole cell patch clamp recordings were conducted according to Nanion's standard procedure for SyncroPatch384PE®. Cells were held at a holding potential of −120 mV. A depolarization step to 10 mV for 30 ms was applied (P1 measurement), followed by a hyperpolarization step to −100 mV for 100 ms. An inactivation step at −40 mV for 10 sec was applied before stepping to −100 mV for 20 ms, followed by a step to 10 mV for 30 ms (P2 measurement) and then back to −100 mV for 30 ms. Sweep interval was 15 sec with a sampling rate of 10 kHz. Following establishment of the whole-cell configuration in EC, two washing steps with reference buffer were performed to stabilize the baseline. Compounds were then applied by the SynchroPatch into each well and the current was recorded for five minutes in EC, followed by application of tetracaine to achieve full block at the end of the experiment. The potency of the compounds was assessed on two read-outs, resting state block (P1 measurement) or inactivated state block (P2 measurement) to obtain IC50 values. Values were normalized to high (tetracaine) and low (DMSO) controls.
# [1] = inactivated state block (P2 measurement), read-out: P2 IC50
# [2] = resting state block (P1 measurement), read-out: P1 IC50
# T1 sequence (Q9Y5Y9 whole entry): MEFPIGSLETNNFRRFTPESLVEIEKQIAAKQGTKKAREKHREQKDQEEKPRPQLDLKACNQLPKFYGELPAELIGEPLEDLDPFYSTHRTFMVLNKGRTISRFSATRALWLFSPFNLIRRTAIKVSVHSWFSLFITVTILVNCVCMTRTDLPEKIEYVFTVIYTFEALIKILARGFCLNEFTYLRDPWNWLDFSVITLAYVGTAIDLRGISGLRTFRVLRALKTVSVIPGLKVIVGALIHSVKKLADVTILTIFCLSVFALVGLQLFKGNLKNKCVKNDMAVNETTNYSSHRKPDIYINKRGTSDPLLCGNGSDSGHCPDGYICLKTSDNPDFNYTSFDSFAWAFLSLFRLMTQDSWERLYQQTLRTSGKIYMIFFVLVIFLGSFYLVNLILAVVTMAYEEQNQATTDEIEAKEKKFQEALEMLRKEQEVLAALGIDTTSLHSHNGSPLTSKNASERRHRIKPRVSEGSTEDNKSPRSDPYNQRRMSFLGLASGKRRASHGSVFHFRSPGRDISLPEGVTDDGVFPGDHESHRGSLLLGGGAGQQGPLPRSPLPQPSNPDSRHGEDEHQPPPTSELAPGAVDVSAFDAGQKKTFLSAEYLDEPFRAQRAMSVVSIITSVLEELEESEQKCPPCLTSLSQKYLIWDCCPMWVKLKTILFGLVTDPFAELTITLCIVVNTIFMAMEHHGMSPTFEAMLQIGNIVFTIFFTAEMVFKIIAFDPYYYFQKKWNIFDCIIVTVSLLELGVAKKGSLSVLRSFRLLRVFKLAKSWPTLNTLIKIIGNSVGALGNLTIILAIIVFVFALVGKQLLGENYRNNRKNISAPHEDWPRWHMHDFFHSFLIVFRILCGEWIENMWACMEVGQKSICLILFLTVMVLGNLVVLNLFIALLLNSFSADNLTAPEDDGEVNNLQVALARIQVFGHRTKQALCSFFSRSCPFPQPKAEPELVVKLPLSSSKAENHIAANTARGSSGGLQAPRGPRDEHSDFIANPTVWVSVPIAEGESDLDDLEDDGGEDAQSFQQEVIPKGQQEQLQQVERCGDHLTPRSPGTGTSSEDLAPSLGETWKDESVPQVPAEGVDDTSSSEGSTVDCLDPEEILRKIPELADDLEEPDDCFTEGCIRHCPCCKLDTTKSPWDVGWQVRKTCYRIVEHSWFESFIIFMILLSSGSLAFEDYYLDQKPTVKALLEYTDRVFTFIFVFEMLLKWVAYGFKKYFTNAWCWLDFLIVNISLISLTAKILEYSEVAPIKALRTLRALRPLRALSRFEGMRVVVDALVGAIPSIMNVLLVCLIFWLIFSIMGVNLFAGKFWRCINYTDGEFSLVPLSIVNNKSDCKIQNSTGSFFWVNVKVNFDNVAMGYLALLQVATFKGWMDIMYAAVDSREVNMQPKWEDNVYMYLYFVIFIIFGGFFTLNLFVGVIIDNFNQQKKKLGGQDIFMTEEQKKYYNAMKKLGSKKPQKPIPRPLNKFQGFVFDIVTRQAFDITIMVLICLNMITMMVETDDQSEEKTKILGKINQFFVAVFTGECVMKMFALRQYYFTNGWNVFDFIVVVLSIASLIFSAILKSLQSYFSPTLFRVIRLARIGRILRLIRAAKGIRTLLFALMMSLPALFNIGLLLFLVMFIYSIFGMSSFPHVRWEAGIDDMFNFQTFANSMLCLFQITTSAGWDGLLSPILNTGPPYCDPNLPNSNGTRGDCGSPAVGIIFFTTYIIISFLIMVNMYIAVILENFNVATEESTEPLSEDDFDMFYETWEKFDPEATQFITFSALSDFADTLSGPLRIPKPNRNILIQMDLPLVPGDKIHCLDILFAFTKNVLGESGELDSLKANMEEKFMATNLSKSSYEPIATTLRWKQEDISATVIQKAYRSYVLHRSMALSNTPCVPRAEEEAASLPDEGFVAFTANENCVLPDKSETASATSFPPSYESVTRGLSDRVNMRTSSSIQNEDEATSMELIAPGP
IC50 [1] [nM],IC50 [2] [nM],SMILES
> 5000,> 5000,Cc1cc(F)ccc1Oc1nnc(C(F)(F)F)cc1C(=O)Nc1ccc[n+]([O-])c1 [Compound 61]
1000 to 5000,1000 to 5000,COc1cc(F)ccc1Oc1nnc(C(F)(F)F)cc1C(=O)Nc1cccc(-n2cnnc2)c1 [Compound 22]
≤ 200,≤ 200,Cc1cc(OC(F)(F)F)ccc1Oc1nnc(C(F)(F)F)cc1C(=O)Nc1cccc(S(N)(=O)=O)c1 [Compound 47]
201 to 500,201 to 500,COc1cc(C#N)ccc1Oc1nnc(C(F)(F)F)cc1C(=O)Nc1cc(S(C)(=O)=O)ccc1F [Compound 77]
501 to 1000,501 to 1000,COc1ccc(F)cc1Oc1nnc(C(F)(F)F)cc1C(=O)Nc1cccc(C(N)=O)c1 [Compound 80]
501 to 1000,501 to 1000,CS(=O)(=O)c1cc(NC(=O)c2cc(C(F)(F)F)nnc2Oc2ccc(F)cc2Cl)ccn1 [Compound 65]
501 to 1000,201 to 500,O=C(Nc1ccnnc1)c1cc(C(F)(F)F)nnc1Oc1ccc(F)cc1Cl [Compound 63]
> 5000,> 5000,"CCOc1cc(F)ccc1Oc1nnc(C)cc1C(=O)Nc1cccc(S(C)(=N)=O)c1 (centres unmarked) [Compound 95, 3-(2-Ethoxy-4-fluorophenoxy)-6-methyl-N-(3-(S-methylsulfonimidoyl)phenyl)pyridazine-4-carboxamide]"
> 5000,> 5000,COc1cc(NC(=O)c2cc(C(F)(F)F)nnc2Oc2ccc(F)cc2C)c(C)cn1 [Compound 29]
> 5000,> 5000,Cc1ccc(F)cc1Oc1nnc(C(F)(F)F)cc1C(=O)Nc1cc(S(C)(=O)=O)ccc1F [Compound 71]
201 to 500,501 to 1000,"Cc1cc(F)ccc1Oc1nnc(C(F)(F)F)cc1C(=O)Nc1ccnnc1 [Compound 59, 3-(4-Fluoro-2-methyl-phenoxy)-N-pyridazin-4-yl-6-(trifluoromethyl)pyridazine-4-carboxamide]"
1000 to 5000,1000 to 5000,COc1cc(F)ccc1Oc1nnc(C(F)(F)F)cc1C(=O)Nc1cccc(-n2cnnc2C)c1 [Compound 54]
≤ 200,≤ 200,"Cc1cc(C#N)ccc1Oc1nnc(C(F)(F)F)cc1C(=O)Nc1cccc(S(N)(=O)=O)c1 [Compound 123, 3-(4-Cyano-2-methylphenoxy)-N-(3-sulfamoylphenyl)-6-(trifluoromethyl)pyridazine-4-carboxamide]"
> 5000,> 5000,CS(=O)(=O)c1cccc(NC(=O)c2cc(C(F)(F)F)nnc2Oc2ccc(F)cc2Cl)n1 [Compound 68]
1000 to 5000,> 5000,Cc1cc(F)ccc1Oc1nnc(C(F)(F)F)cc1C(=O)Nc1cccc(-n2cncn2)c1 [Compound 9]
> 5000,> 5000,"Cc1c[nH]c(=O)cc1NC(=O)c1cc(C(F)(F)F)nnc1Oc1ccc(F)cc1C [Compound 90, 3-(4-Fluoro-2-methylphenoxy)-N-(5-methyl-2-oxo-1,2-dihydropyridin-4-yl)-6-(trifluoromethyl)pyridazine-4-carboxamide]"
1000 to 5000,1000 to 5000,Cc1cc(F)ccc1Oc1nnc(C(F)(F)F)cc1C(=O)Nc1ccn2cnnc2c1 [Compound 11]
1000 to 5000,1000 to 5000,COc1cc(F)ccc1Oc1nnc(C(F)(F)F)cc1C(=O)Nc1cncc(S(C)(=O)=O)c1 [Compound 16]
> 5000,> 5000,Cc1cc(F)ccc1Oc1nnc(C(F)(F)F)cc1C(=O)Nc1cccc(CS(C)(=O)=O)c1 [Compound 10]
≤ 200,≤ 200,COc1cc(F)ccc1Oc1nnc(C(F)(F)F)cc1C(=O)Nc1cccc(C(N)=O)c1 [Compound 26]

IC50 [1] [nM],IC50 [2] [nM],SMILES
201 to 500,501 to 1000,"COc1ccc(F)cc1Oc1nnc(C(F)(F)F)cc1C(=O)Nc1cccc(S(N)(=O)=O)c1 [Compound 122, 3-(5-Fluoro-2-methoxyphenoxy)-N-(3-sulfamoylphenyl)-6-(trifluoromethyl)pyridazine-4-carboxamide]"
501 to 1000,201 to 500,"NS(=O)(=O)c1cccc(NC(=O)c2cc(C(F)(F)F)nnc2Oc2ccc(F)cc2O)c1 [Compound 131, 3-(4-Fluoro-2-hydroxyphenoxy)-N-(3-sulfamoylphenyl)-6-(trifluoromethyl)pyridazine-4-carboxamide]"
≤ 200,≤ 200,"COc1cc(F)ccc1Oc1nnc(C(F)(F)F)cc1C(=O)Nc1ccnc(C(N)=O)c1 [Compound 126, N-(2-Carbamoylpyridin-4-yl)-3-(4-fluoro-2-methoxyphenoxy)-6-(trifluoromethyl)pyridazine-4-carboxamide]"
1000 to 5000,1000 to 5000,COc1cc(F)ccc1Oc1nnc(C(F)(F)F)cc1C(=O)Nc1cccc(CS(C)(=O)=O)c1 [Compound 19]
1000 to 5000,1000 to 5000,Cc1cc(F)ccc1Oc1nnc(C(F)(F)F)cc1C(=O)Nc1cccc(-n2cnnc2)c1 [Compound 12]
> 5000,> 5000,Cc1cc(F)ccc1Oc1nnc(C(F)(F)F)cc1C(=O)Nc1cccc(-c2cc[nH]n2)c1 [Compound 85]
1000 to 5000,> 5000,CS(=O)(=O)c1cncc(NC(=O)c2cc(C(F)(F)F)nnc2Oc2ccc(F)cc2Cl)c1 [Compound 66]
1000 to 5000,201 to 500,COc1ccc(F)cc1Oc1nnc(C(F)(F)F)cc1C(=O)Nc1cccc(S(C)(=O)=O)c1 [Compound 81]
≤ 200,≤ 200,COc1cc(F)ccc1Oc1nnc(C(F)(F)F)cc1C(=O)Nc1cncc(S(N)(=O)=O)c1 [Compound 49]
> 5000,1000 to 5000,Cc1cc(F)ccc1Oc1nnc(C(F)(F)F)cc1C(=O)Nc1ccc(=O)[nH]c1 [Compound 41]
≤ 200,≤ 200,COc1ccc(Oc2nnc(C(F)(F)F)cc2C(=O)Nc2cccc(S(C)(=O)=O)c2)c(C)c1 [Compound 53]
> 5000,> 5000,"Cc1cc(-c2cn[nH]c2)ccc1Oc1nnc(C(F)(F)F)cc1C(=O)Nc1cccc(S(C)(=O)=O)c1 [Compound 133, 3-[2-Methyl-4-(1H-pyrazol-4-yl)phenoxy]-N-(3-methylsulfonylphenyl)-6-(trifluoromethyl)pyridazine-4-carboxamide]"
501 to 1000,501 to 1000,COc1cc(F)ccc1Oc1nnc(C(F)(F)F)cc1C(=O)Nc1ccn2cnnc2c1 [Compound 21]
≤ 200,201 to 500,"Cc1cc(-c2cnoc2)ccc1Oc1nnc(C(F)(F)F)cc1C(=O)Nc1cccc(S(C)(=O)=O)c1 [Compound 132, N-(3-Methanesulfonylphenyl)-3-[2-methyl-4-(1,2-oxazol-4-yl)phenoxy]-6-(trifluoromethyl)pyridazine-4-carboxamide]"
1000 to 5000,501 to 1000,COc1cc(F)ccc1Oc1nnc(C(F)(F)F)cc1C(=O)Nc1ccc2c(c1)S(=O)(=O)NC2=O [Compound 43]
201 to 500,501 to 1000,"Cc1cc(F)ccc1Oc1nnc(C(F)(F)F)cc1C(=O)Nc1cccc([S@](C)(=N)=O)c1 [Compound 102, (R)-3-(4-fluoro-2-methylphenoxy)-N-(3-(S-methylsulfonimidoyl)phenyl)-6-(trifluoromethyl)pyridazine-4-carboxamide]"
> 5000,1000 to 5000,"Cc1cc(C(=O)Nc2cccc(S(C)(=N)=O)c2)c(Oc2ccc(F)cc2C)nn1 (centres unmarked) [Compound 93, 3-(4-Fluoro-2-methyl-phenoxy)-6-methyl-N-[3-(methylsulfonimidoyl)phenyl]pyridazine-4-carboxamide]"
≤ 200,≤ 200,COc1cc(C#N)ccc1Oc1nnc(C(F)(F)F)cc1C(=O)Nc1cccc(S(C)(=O)=O)c1 [Compound 75]
201 to 500,≤ 200,"COc1cc(F)ccc1Oc1nnc(C(F)(F)F)cc1C(=O)Nc1ccc(C(N)=O)nc1 [Compound 125, N-(6-Carbamoylpyridin-3-yl)-3-(4-fluoro-2-methoxyphenoxy)-6-(trifluoromethyl)pyridazine-4-carboxamide]"
≤ 200,≤ 200,COc1cc(F)ccc1Oc1nnc(C(F)(F)F)cc1C(=O)Nc1ccc(C(N)=O)cc1 [Compound 27]
